# Assay results as given in patent US20140288043A1, “PYRAZOLOPYRIDINE COMPOUNDS” (Genentech, Inc., priority 2013, published 2014).
# Biological target: LRRK2 (Homo sapiens, UniProt Q5S007)
# Test: LRRK2 protein kinase assay ([γ-33P] ATP, peptide substrate), KI values of Table 1
# Type: biochemical
# Settings: LRRK2 affinity values
# From the text: All LRRK2 protein kinases were of human origin and were sourced from Invitrogen Corporation (Carlsbad, Calif. 92008 USA) unless otherwise indicated. The active mutant used was recombinant human, catalytic domain (amino acids 970-2527) containing a G2019S mutation, GST-tagged, expressed in insect cells (Invitrogen Cat#PV4881). The wild type used was recombinant human, catalytic domain (amino acids 970-2527) GST-tagged, expressed in insect cells (Invitrogen Cat#PV4873). The kinase dead mutant used was recombinant human, catalytic domain (amino acids 970-2527) containing a D1994A mutation, GST-tagged, expressed in insect cells (Invitrogen Cat#PM4041AE). No special measures were taken to activate any of the kinases.
# All assays were carried out at room temperature (˜21° C.) and were linear with respect to time and enzyme concentration under the conditions used. Assays were performed for 180 min in a 96 well format. LRRK2 was present at a concentration of approximately 5 nM. The enzyme was diluted and assayed in 50 mM Tris-HCl pH7.5, 0.1 mM EGTA, 1 mM DTT and 10 mM MgCl2. The concentration of magnesium chloride in the assay was 10 mM. The [γ-33P] ATP (0.4 μCi/well) was used at 134 uM for G2019S mutant and at 57 μM for the wild type kinase in order to be at Km. The peptide substrate in the assay was […] at 100 μM.
# The assays were initiated with Mg/ATP and stopped by the addition of 25 μl/well 50% orthophosphoric acid. Reactions were harvested onto Whatman P81 Unifilter Plates (Fisher Scientific. Loughborough, LE115RG, UK. Cat# FDU-105-020U) using a Tomtec harvester. (Tomtec Hamden, Conn. 06514. USA) Plates were counted using a Perkin Elmer Top Count NX7. (Perkin Elmer, Shelton Conn. 06484-4794 USA)
# IC50 values of inhibitors were determined after carrying out assays at 10 different concentrations of each compound in duplicate.
# Sequence of LRRK2 (Q5S007 whole entry G2019S, form open): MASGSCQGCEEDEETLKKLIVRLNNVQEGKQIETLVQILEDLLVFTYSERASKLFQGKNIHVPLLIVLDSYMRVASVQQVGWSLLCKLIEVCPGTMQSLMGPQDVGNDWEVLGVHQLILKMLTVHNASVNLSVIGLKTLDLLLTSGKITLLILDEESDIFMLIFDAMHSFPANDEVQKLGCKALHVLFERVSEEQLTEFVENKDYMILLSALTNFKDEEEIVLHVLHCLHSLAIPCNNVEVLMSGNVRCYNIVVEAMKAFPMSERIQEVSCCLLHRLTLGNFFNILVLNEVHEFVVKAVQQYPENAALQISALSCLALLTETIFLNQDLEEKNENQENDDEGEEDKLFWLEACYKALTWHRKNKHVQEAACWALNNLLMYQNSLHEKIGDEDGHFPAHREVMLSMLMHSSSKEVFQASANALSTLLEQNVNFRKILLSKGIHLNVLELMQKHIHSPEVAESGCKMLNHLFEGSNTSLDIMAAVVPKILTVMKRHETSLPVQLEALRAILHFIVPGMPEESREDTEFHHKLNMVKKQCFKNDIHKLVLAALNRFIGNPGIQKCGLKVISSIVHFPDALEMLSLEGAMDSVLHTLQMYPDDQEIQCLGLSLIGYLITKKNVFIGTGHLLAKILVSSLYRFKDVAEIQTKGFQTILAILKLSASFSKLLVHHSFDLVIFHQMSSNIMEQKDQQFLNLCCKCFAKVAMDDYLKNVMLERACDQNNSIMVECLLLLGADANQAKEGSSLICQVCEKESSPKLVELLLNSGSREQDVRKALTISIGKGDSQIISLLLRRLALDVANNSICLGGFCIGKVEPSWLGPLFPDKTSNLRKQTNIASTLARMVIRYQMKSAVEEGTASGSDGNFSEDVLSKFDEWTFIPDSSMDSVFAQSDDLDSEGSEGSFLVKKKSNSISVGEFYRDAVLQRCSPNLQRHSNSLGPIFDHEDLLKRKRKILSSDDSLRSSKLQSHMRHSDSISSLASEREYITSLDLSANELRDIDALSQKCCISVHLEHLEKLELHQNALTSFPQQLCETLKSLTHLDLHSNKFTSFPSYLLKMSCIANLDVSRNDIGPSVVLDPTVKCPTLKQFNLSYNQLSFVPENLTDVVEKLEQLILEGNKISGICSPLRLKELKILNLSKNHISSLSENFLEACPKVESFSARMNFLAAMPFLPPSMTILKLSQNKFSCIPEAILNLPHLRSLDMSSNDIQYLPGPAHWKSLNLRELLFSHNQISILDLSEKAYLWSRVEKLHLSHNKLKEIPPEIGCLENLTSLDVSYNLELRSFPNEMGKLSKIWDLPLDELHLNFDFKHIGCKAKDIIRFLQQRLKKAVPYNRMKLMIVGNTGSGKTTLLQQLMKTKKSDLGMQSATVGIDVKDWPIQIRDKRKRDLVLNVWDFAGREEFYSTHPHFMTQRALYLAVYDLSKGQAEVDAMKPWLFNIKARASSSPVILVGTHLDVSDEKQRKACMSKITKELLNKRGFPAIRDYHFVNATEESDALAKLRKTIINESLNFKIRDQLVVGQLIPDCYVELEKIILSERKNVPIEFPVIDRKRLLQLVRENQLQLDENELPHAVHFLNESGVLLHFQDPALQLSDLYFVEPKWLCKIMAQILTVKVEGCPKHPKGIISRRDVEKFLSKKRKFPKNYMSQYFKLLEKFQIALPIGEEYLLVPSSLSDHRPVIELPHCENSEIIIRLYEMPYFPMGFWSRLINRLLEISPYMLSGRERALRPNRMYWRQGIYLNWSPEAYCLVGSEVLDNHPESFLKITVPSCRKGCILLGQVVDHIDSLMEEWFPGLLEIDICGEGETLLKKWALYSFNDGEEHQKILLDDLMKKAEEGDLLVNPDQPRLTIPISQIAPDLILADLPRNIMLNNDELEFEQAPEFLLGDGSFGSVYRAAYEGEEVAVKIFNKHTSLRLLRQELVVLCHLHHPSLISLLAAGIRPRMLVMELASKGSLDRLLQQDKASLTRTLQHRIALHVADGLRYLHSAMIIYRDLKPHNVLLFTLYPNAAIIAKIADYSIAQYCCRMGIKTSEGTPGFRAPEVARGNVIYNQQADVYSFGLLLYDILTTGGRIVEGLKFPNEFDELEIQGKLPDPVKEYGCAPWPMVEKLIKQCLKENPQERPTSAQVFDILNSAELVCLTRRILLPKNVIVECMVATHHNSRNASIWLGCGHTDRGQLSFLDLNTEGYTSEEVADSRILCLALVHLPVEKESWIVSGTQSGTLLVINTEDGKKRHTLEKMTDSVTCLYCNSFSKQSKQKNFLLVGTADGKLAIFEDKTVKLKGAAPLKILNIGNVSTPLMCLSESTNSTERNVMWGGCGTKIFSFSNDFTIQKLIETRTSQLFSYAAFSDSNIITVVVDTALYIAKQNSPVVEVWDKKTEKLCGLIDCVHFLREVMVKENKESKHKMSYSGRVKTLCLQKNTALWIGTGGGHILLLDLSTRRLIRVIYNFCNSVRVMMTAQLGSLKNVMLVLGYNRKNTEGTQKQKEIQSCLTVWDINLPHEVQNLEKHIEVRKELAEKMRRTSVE
row,Ki,Compound
1,39.9 nM,"Cc1cc2[nH]nc(-c3cc(C(F)(F)F)ccn3)c2c(NC2CCOCC2)n1 [Compound 51, 6-methyl-N-(tetrahydro-2H-pyran-4-yl)-3-(4-(trifluoromethyl)pyridin-2-yl)-1H-pyrazolo[4,3-c]pyridin-4-amine]"
2,0.8 nM,"CC(C)Nc1nccc2[nH]nc(-c3cc(-c4cnn(C)c4)ccn3)c12 [Compound 35, N-isopropyl-3-(4-(1-methyl-1H-pyrazol-4-yl)pyridin-2-yl)-1H-pyrazolo[4,3-c]pyridin-4-amine]"
3,80.3 nM,"CC(C)Nc1nccc2[nH]nc(-c3cc(C(=O)N4CCOCC4)ccn3)c12 [Compound 56, (2-(4-(isopropylamino)-1H-pyrazolo[4,3-c]pyridin-3-yl)pyridin-4-yl)(morpholino)methanone]"
4,28.7 nM,"CC(C)Nc1nccc2[nH]nc(-c3cc(C4CCCO4)ncn3)c12 (stereo not drawn) [Compound 54, N-isopropyl-3-(6-(tetrahydrofuran-2-yl)pyrimidin-4-yl)-1H-pyrazolo[4,3-c]pyridin-4-amine]"
5,1.6 nM,"CC(C)Nc1nccc2[nH]nc(-c3cc(N4CCOCC4)ccn3)c12 [Compound 3, N-isopropyl-3-(4-morpholinopyridin-2-yl)-1H-pyrazolo[4,3-c]pyridin-4-amine]"
6,9.1 nM,"CC(C)Nc1nccc2[nH]nc(-n3cc(C(F)(F)F)cn3)c12 [Compound 32, N-isopropyl-3-(4-(trifluoromethyl)-1H-pyrazol-1-yl)-1H-pyrazolo[4,3-c]pyridin-4-amine]"
7,1.3 nM,"Cc1nn(C)cc1-c1ccnc(-c2n[nH]c3ccnc(NC(C)C)c23)c1 [Compound 45, 3-(4-(1,3-dimethyl-1H-pyrazol-4-yl)pyridin-2-yl)-N-isopropyl-1H-pyrazolo[4,3-c]pyridin-4-amine]"
8,22.5 nM,"CCNc1nccc2[nH]nc(-c3cn(CCOC)nn3)c12 [Compound 14, N-ethyl-3-(1-(2-methoxyethyl)-1H-1,2,3-triazol-4-yl)-1H-pyrazolo[4,3-c]pyridin-4-amine]"
9,4.4 nM,"CC(C)Nc1nccc2[nH]nc(-c3cc(C4CCCO4)ccn3)c12 (stereo not drawn) [Compound 53, N-isopropyl-3-(4-(tetrahydrofuran-2-yl)pyridin-2-yl)-1H-pyrazolo[4,3-c]pyridin-4-amine]"
10,23.2 nM,"CC(C)S(=O)(=O)c1ccnc(-c2n[nH]c3ccnc(NC4CCOCC4)c23)c1 [Compound 75, 3-(4-(isopropylsulfonyl)pyridin-2-yl)-N-(tetrahydro-2H-pyran-4-yl)-1H-pyrazolo[4,3-c]pyridin-4-amine]"
11,66.3 nM,"Cc1cc2[nH]nc(-c3cc(C(F)(F)F)ncn3)c2c(NC2CCOCC2)n1 [Compound 57, 6-methyl-N-(tetrahydro-2H-pyran-4-yl)-3-(6-(trifluoromethyl)pyrimidin-4-yl)-1H-pyrazolo[4,3-c]pyridin-4-amine]"
12,213 nM,"CC(C)Nc1nccc2[nH]nc(-c3nc(C4CC4)n(C)n3)c12 [Compound 42, 3-(5-cyclopropyl-1-methyl-1H-1,2,4-triazol-3-yl)-N-isopropyl-1H-pyrazolo[4,3-c]pyridin-4-amine]"
13,22.9 nM,"FC1(F)CCC(Nc2nccc3[nH]nc(-c4cc(C(F)(F)F)ncn4)c23)CC1 [Compound 66, N-(4,4-difluorocyclohexyl)-3-(6-(trifluoro-methyl)pyrimidin-4-yl)-1H-pyrazolo[4,3-c]pyridin-4-amine]"
14,3.7 nM,"CC(C)Nc1nccc2[nH]nc(-c3cc(-c4ccnn4C)ccn3)c12 [Compound 36, N-isopropyl-3-(4-(1-methyl-1H-pyrazol-5-yl)pyridin-2-yl)-1H-pyrazolo[4,3-c]pyridin-4-amine]"
15,6 nM,"c1cc(-c2n[nH]c3ccnc(NC4CCOCC4)c23)ncn1 [Compound 18, 3-(pyrimidin-4-yl)-N-(tetrahydro-2H-pyran-4-yl)-1H-pyrazolo[4,3-c]pyridin-4-amine]"
16,6.4 nM,"FC1(F)CCC(Nc2nccc3[nH]nc(-c4ccccn4)c23)CC1 [Compound 34, N-(4,4-difluorocyclohexyl)-3-(pyridin-2-yl)-1H-pyrazolo[4,3-c]pyridin-4-amine]"
17,0.4 nM,"FC(F)(F)c1ccnc(-c2n[nH]c3ccnc(NC4CCOCC4)c23)c1 [Compound 23, N-(tetrahydro-2H-pyran-4-yl)-3-(4-(trifluoromethyl)pyridin-2-yl)-1H-pyrazolo[4,3-c]pyridin-4-amine]"
18,12 nM,"CC(C)Nc1nccc2[nH]nc(-c3cc(C4CCOC4)ncn3)c12 (stereo not drawn) [Compound 48, N-isopropyl-3-(6-(tetrahydrofuran-3-yl)pyrimidin-4-yl)-1H-pyrazolo[4,3-c]pyridin-4-amine]"

row,Ki,Compound
1,4.6 nM,"CC(C)Nc1nccc2[nH]nc(-c3cc(C4CCOC4)ccn3)c12 (stereo not drawn) [Compound 49, N-isopropyl-3-(4-(tetrahydrofuran-3-yl)pyridin-2-yl)-1H-pyrazolo[4,3-c]pyridin-4-amine]"
2,31.8 nM,"CCNc1nccc2[nH]nc(-c3cc(C(F)(F)F)ncn3)c12 [Compound 27, N-ethyl-3-(6-(trifluoromethyl)pyrimidin-4-yl)-1H-pyrazolo[4,3-c]pyridin-4-amine]"
3,3.3 nM,"CC(C)n1cnc(-c2n[nH]c3ccnc(NC4CCOCC4)c23)c1 [Compound 6, 3-(1-isopropyl-1H-imidazol-4-yl)-N-(tetrahydro-2H-pyran-4-yl)-1H-pyrazolo[4,3-c]pyridin-4-amine]"
4,6.7 nM,"Cc1nc(-c2n[nH]c3ccnc(NC4CCOCC4)c23)cc(C(F)(F)F)n1 [Compound 71, 3-(2-methyl-6-(trifluoromethyl)pyrimidin-4-yl)-N-(tetrahydro-2H-pyran-4-yl)-1H-pyrazolo[4,3-c]pyridin-4-amine]"
5,14.2 nM,"CCNc1nccc2[nH]nc(-c3cc(C#N)ccn3)c12 [Compound 25, 2-(4-(ethylamino)-1H-pyrazolo[4,3-c]pyridin-3-yl)isonicotinonitrile]"
6,3.8 nM,"N#Cc1ccnc(-c2n[nH]c3ccnc(NC4CCOCC4)c23)c1 [Compound 26, 2-(4-((tetrahydro-2H-pyran-4-yl)amino)-1H-pyrazolo[4,3-c]pyridin-3-yl)isonicotinonitrile]"
7,4.4 nM,"CC(C)Nc1nccc2[nH]nc(-c3cn(C(C)C)nn3)c12 [Compound 7, N-isopropyl-3-(1-isopropyl-1H-1,2,3-triazol-4-yl)-1H-pyrazolo[4,3-c]pyridin-4-amine]"
8,20.2 nM,"FC(F)(F)c1cc(-c2n[nH]c3ccnc(NCC4CC4)c23)ncn1 [Compound 65, N-(cyclopropylmethyl)-3-(6-(trifluoromethyl)pyrimidin-4-yl)-1H-pyrazolo[4,3-c]pyridin-4-amine]"
9,2.5 nM,"FC(F)(F)c1cc(-c2n[nH]c3ccnc(NC(C4CC4)C4CC4)c23)ncn1 [Compound 73, N-(dicyclopropylmethyl)-3-(6-(trifluoro-methyl)pyrimidin-4-yl)-1H-pyrazolo[4,3-c]pyridin-4-amine]"
10,4.5 nM,"Cc1cc(S(C)(=O)=O)cc(-c2n[nH]c3ccnc(NC(C)C)c23)n1 [Compound 76, N-isopropyl-3-(6-methyl-4-(methylsulfonyl)pyridin-2-yl)-1H-pyrazolo[4,3-c]pyridin-4-amine]"
11,1 nM,"Cc1nccc(-c2n[nH]c3ccnc(NC4CCOCC4)c23)n1 [Compound 33, 3-(2-methylpyrimidin-4-yl)-N-(tetrahydro-2H-pyran-4-yl)-1H-pyrazolo[4,3-c]pyridin-4-amine]"
12,1.1 nM,"CC(C)Nc1nccc2[nH]nc(-c3cc(N4CCOCC4)ncn3)c12 [Compound 4, N-isopropyl-3-(6-morpholinopyrimidin-4-yl)-1H-pyrazolo[4,3-c]pyridin-4-amine]"
13,11 nM,"CC(C)Nc1nccc2[nH]nc(-c3ccccn3)c12 [Compound 13, N-isopropyl-3-(pyridin-2-yl)-1H-pyrazolo[4,3-c]pyridin-4-amine]"
14,1.8 nM,"Cc1cccc(-c2n[nH]c3ccnc(NC4CCOCC4)c23)n1 [Compound 28, 3-(6-methylpyridin-2-yl)-N-(tetrahydro-2H-pyran-4-yl)-1H-pyrazolo[4,3-c]pyridin-4-amine]"
15,152 nM,"CCNc1nccc2[nH]nc(-c3ccncn3)c12 [Compound 19, N-ethyl-3-(pyrimidin-4-yl)-1H-pyrazolo[4,3-c]pyridin-4-amine]"
16,3.1 nM,"CC(C)Nc1nccc2[nH]nc(-c3cc(-c4cccnc4F)ccn3)c12 [Compound 37, 3-(2-fluoro-[3,4′-bipyridin]-2′-yl)-N-isopropyl-1H-pyrazolo[4,3-c]pyridin-4-amine]"
17,0.7 nM,"Clc1ccnc(-c2n[nH]c3ccnc(NC4CCOCC4)c23)c1 [Compound 29, 3-(4-chloropyridin-2-yl)-N-(tetrahydro-2H-pyran-4-yl)-1H-pyrazolo[4,3-c]pyridin-4-amine]"
18,1.1 nM,"Cc1c(-c2ccnc(-c3n[nH]c4ccnc(NC(C)C)c34)c2)cnn1C [Compound 44, 3-(4-(1,5-dimethyl-1H-pyrazol-4-yl)pyridin-2-yl)-N-isopropyl-1H-pyrazolo[4,3-c]pyridin-4-amine]"
